Data reported in patent USRE45810E1, “Process for producing spherical base granule comprising easily water-soluble drug” (ASAHI KASEI CHEMICALS CORPORATION, priority 2006, dated 2015).
Like-named read-outs stand apart in the source and are kept apart here.

How the values were obtained:
[1] = Tackiness of dried film of layering liquid, finger test by panel of three experts; format: physicochemical
Procedure: A layering liquid (3 g) is poured in a polypropylene Petri dish having a diameter of 8 cm and dried at 40° C. in an air-circulation-free dryer (“FC610”, product of Advantec Co., Ltd.). Within three seconds after taking out the dried product from the dryer, tackiness of the dried film when an index finger is pressed against the film for two seconds and then released therefrom is evaluated by a panel of three experts. The tackiness is rated as “1” when no tackiness is observed, “2” when a little tackiness is observed, “3” when tackiness is observed, “4” when strong tackiness is observed, and “5” when very strong tackiness is observed. The tackiness of the dried film is evaluated by the average of them.
It is known empirically that agglomeration occurs during layering when the tackiness is “3” or higher so that the layering rate must be set low to prevent it. Layering cannot be performed in practice when the tackiness is “5”.

[2] = in 1 cm^3 of water of 20° C., cited from earlier work

Compound	Tackiness of layering liquid (in words) [1]	Solubility [2]	Solubility ([2]; listed as fructose)
OC[C@@H](O)[C@@H](O)[C@H](O)[C@@H](O)CO [Sorbitol, sorbitol]	do not show a tackiness reducing effect	0.9 g	
OC[C@@H](O)[C@@H](O)[C@H](O)[C@H](O)CO [D-mannitol]		0.18 g	
O=C(CO)[C@@H](O)[C@H](O)[C@H](O)CO [Fructose, fructose]	do not show a tackiness reducing effect	6 g	0.6 g
